Experimental data: ChEMBL document CHEMBL3526141, “Characterization of human liver enzymes involved in the biotransformation of boceprevir, a hepatitis C virus protease inhibitor” (Drug Metab Dispos, 2011)

What was measured:
Liver cytosol [1] = assay: (§1) Drug metabolism in human liver cytosol at 20 uM assessed as (1R,2S,5S)-N-((2S,3R)-4-amino-1-cyclobutyl-3-hydroxy-4-oxobutan-2-yl)-3-((S)-2-(3-tert-butylureido)-3,3-dimethylbutanoyl)-6,6-dimethyl-3-azabicyclo[3.1.0]hexane-2-carboxamide formation at 20 uM after 60 mins in presence of AKR inhibitor diazepam by LC-MS/MS/FSA method; type: ADME; conditions: 1 h
Liver cytosol [2] = assay: Drug metabolism in human liver cytosol treated with 20 uM [14C]boceprevir assessed as IC50 for AKR inhibitor diflunisal-mediated metabolite formation after 60 mins by LC-MS/MS/FSA method; type: ADME, tissue-based; conditions: 1 h
[3] = target: T1, Aldo-keto reductase family 1 member C3 (Homo sapiens, UniProt P42330); assay: (§2) Activity of human recombinant AKR1C3 expressed in HEK293 cells assessed as (1R,2S,5S)-N-((2S,3R)-4-amino-1-cyclobutyl-3-hydroxy-4-oxobutan-2-yl)-3-((S)-2-(3-tert-butylureido)-3,3-dimethylbutanoyl)-6,6-dimethyl-3-azabicyclo[3.1.0]hexane-2-carboxamide formation per mg protein after 120 mins in presence of NADPH by LC-MS/MS/FSA method; type: ADME, cell-based; conditions: hek293, 2 h
T1 sequence (P42330 whole entry): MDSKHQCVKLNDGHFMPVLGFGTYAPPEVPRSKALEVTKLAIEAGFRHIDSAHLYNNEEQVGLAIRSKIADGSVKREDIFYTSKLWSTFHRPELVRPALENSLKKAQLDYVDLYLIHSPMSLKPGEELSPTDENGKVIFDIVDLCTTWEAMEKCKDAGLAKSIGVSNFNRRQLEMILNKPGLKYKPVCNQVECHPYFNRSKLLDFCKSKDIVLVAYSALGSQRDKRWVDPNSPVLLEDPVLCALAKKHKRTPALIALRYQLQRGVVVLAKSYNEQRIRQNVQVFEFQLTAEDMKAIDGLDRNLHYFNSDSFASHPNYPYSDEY

[4] = target: T1, Aldo-keto reductase family 1 member C3; assay: Activity of human recombinant AKR1C3 expressed in HEK293 cells assessed as ratio of Vmax to Km for (1R,2S,5S)-N-((2S,3R)-4-amino-1-cyclobutyl-3-hydroxy-4-oxobutan-2-yl)-3-((S)-2-(3-tert-butylureido)-3,3-dimethylbutanoyl)-6,6-dimethyl-3-azabicyclo[3.1.0]hexane-2-carboxamide formation per mg protein after 120 mins in presence of NADPH by LC-MS/MS/FSA method; type: ADME, cell-based; conditions: hek293, 2 h
[5] = target: T1, Aldo-keto reductase family 1 member C3; assay: as §2, with “formation” for “formation per mg protein”; type: ADME, cell-based; conditions: hek293, 2 h
[6] = as §1, with “S9 fraction” for “cytosol”, “formation” for “formation at 20 uM after 60 mins”, “phenolphthalein” for “AKR inhibitor diazepam”; type: ADME, subcellular; conditions: s9, 20 µM
Liver cytosol [7] = assay: as §1; type: ADME; conditions: 1 h; remark: listed apart in the source
[8] = Drug metabolism in human liver S9 fraction at 20 uM assessed as (1R,2S,5S)-N-((2S,3R)-4-amino-1-cyclobutyl-3-hydroxy-4-oxobutan-2-yl)-3-((S)-2-(3-tert-butylureido)-3,3-dimethylbutanoyl)-6,6-dimethyl-3-azabicyclo[3.1.0]hexane-2-carboxamide formation in presence of allopurinol by LC-MS/MS/FSA method; type: ADME, subcellular; conditions: s9, 20 µM
[9] = Drug metabolism in human liver S9 fraction at 20 uM assessed as (1R,2S,5S)-N-((2S,3R)-4-amino-1-cyclobutyl-3-hydroxy-4-oxobutan-2-yl)-3-((S)-2-(3-tert-butylureido)-3,3-dimethylbutanoyl)-6,6-dimethyl-3-azabicyclo[3.1.0]hexane-2-carboxamide formation in presence of menadione by LC-MS/MS/FSA method; type: ADME, subcellular; conditions: s9, 20 µM
Liver cytosol [10] = assay: Drug metabolism in human liver cytosol at 20 uM assessed as (1R,2S,5S)-N-((2S,3R)-4-amino-1-cyclobutyl-3-hydroxy-4-oxobutan-2-yl)-3-((S)-2-(3-tert-butylureido)-3,3-dimethylbutanoyl)-6,6-dimethyl-3-azabicyclo[3.1.0]hexane-2-carboxamide formation in presence of flufenamic acid by LC-MS/MS/FSA method; type: ADME
[11] = target: T2, Aldo-keto reductase family 1 member C4 (Homo sapiens, UniProt P17516); assay: as §2, with “AKR1C4” for “AKR1C3”; type: ADME, cell-based; conditions: hek293, 2 h
T2 sequence (P17516 whole entry): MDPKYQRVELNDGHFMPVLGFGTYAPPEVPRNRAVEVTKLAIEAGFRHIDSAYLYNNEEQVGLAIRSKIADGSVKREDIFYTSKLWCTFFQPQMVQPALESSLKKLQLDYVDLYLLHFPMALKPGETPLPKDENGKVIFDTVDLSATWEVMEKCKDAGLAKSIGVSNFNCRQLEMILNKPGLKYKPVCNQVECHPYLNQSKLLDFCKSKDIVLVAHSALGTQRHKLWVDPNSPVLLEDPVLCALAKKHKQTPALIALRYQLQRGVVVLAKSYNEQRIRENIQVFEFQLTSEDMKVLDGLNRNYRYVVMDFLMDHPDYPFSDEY

[12] = Drug excretion in human urine; type: ADME; parameters: dosed compound name [14C]boceprevir
Cytochrome P450 4F3 = target: T3, Cytochrome P450 4F3 (Homo sapiens, UniProt Q08477); assay: Drug metabolism assessed as human CYP4F3A-mediated compound formation from 5 uM [14C]boceprevir after 120 mins by LC-MS/FSA method relative to total [14C]boceprevir; type: ADME; conditions: recombinant enzyme, 2 h
T3 sequence (Q08477 whole entry): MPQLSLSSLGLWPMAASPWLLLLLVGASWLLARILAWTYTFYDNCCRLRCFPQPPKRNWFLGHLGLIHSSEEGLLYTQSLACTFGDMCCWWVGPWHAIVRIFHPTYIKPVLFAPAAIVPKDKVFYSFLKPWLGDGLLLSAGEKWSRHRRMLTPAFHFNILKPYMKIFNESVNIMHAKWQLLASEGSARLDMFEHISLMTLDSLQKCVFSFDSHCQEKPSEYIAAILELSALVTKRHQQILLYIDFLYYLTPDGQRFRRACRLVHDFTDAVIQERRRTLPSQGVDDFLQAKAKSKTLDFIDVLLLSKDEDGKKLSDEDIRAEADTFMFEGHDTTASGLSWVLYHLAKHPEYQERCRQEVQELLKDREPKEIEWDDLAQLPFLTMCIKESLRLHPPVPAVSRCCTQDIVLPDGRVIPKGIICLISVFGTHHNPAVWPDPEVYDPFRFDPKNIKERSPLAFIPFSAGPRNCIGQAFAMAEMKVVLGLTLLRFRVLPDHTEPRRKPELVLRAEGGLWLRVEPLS

Liver microsome = assay: Drug metabolism in human liver microsomes treated with 20 uM [14C]boceprevir assessed as compound formation by LC-MS/FSA method relative to total [14C]boceprevir; type: ADME
[13] = target: T1, Aldo-keto reductase family 1 member C3; assay: Drug metabolism in human recombinant […] HEK293 cells treated with 20 uM boceprevir assessed as 100 uM diazepam-mediated inhibition of AKR1C3-mediated metabolite formation after 120 mins in presence of NADPH by LC-MS/MS/FSA method; type: ADME, cell-based; parameters: interact cpd dose 100 uM; conditions: hek293, 2 h
Liver cytosol [14] = assay: Drug metabolism in human liver cytosol assessed as (1R,2S,5S)-N-((2R,3R)-4-amino-1-cyclobutyl-3-hydroxy-4-oxobutan-2-yl)-3-((S)-2-(3-tert-butylureido)-3,3-dimethylbutanoyl)-6,6-dimethyl-3-azabicyclo[3.1.0]hexane-2-carboxamide formation after 60 mins by LC-MS/MS/FSA method; type: ADME, tissue-based; conditions: 1 h
Liver cytosol [15] = assay: Drug metabolism in human liver cytosol at 20 uM assessed as (1R,2S,5S)-N-((2R,3R)-4-amino-1-cyclobutyl-3-hydroxy-4-oxobutan-2-yl)-3-((S)-2-(3-tert-butylureido)-3,3-dimethylbutanoyl)-6,6-dimethyl-3-azabicyclo[3.1.0]hexane-2-carboxamide formation at 20 uM after 60 mins in presence of AKR inhibitor diazepam by LC-MS/MS/FSA method; type: ADME; conditions: 1 h

Row | Compound recovery (Liver cytosol [1]) | IC50 (Liver cytosol [2]) | Vmax [3] | Vmax/Km [4] | Km [5] | Compound recovery [6] | Compound recovery (Liver cytosol [7]) | Compound recovery [8] | Compound recovery [9] | Compound recovery (Liver cytosol [10]) | Compound recovery [11] | Radiolabel recovery [12] | Compound recovery (Cytochrome P450 4F3) | Compound recovery (Liver microsome) | inhibition (INH) [13] | Km (Liver cytosol [14]) | Compound recovery (Liver cytosol [15]) | SMILES
1 | metabolite_not_detected | 4.58 µM | 639 pmol/min | 14.67 µL/min | 43.5 µM | metabolite_not_detected | metabolite_not_detected | metabolite_detected | metabolite_not_detected | metabolite_not_detected | metabolite_not_detected | 9.3% | – | – | – | – | – | CC(C)(C)NC(=O)N[C@H](C(=O)N1C[C@H]2[C@@H]([C@H]1C(=O)NC(CC1CCC1)C(=O)C(N)=O)C2(C)C)C(C)(C)C (stereo not given in full) [BOCEPREVIR]
2 | – | 4.58 µM | – | – | – | – | – | – | – | – | – | – | 1.78% | 0.6% | 80% | – | – | CC(C)(C)NC(=O)N[C@H](C(=O)N1C[C@H]2[C@@H]([C@H]1C(=O)N[C@@H](CC1CCC1)[C@@H](O)C(N)=O)C2(C)C)C(C)(C)C
3 | – | – | – | – | – | – | – | – | – | – | – | – | 34.35% | 17.42% | – | 27.4 µM | metabolite_not_detected | CC(C)(C)NC(=O)N[C@H](C(=O)N1C[C@H]2[C@@H]([C@H]1C(=O)N[C@H](CC1CCC1)C(=O)C(N)=O)C2(C)C)C(C)(C)C
